Results as given in patent EP4534088A1, “ARFOLITIXORIN FOR USE IN VITAMIN B6-ENHANCED, 5-FLUOROURACIL-BASED CHEMOTHERAPY OF CARCINOMAS” (priority 2023, dated 2025).
Values belong to the molecule of their own block, whether it stands above or below them.

Key:
thymidylate synthase = molecular target: T1, thymidylate synthase (Homo sapiens, UniProt P04818); assay: Modelle-001 Phase II clinical trial: TS inhibition in colorectal liver metastases (LC-MS/MS); type: in vivo; settings: iv, i.v. bolus, with 500 mg/m2 5-FU, mean
T1 construct: from tissue; host or cells: colorectal liver metastasis tissue from human patients
Text: The difference in a clinical setting in human patients between leucovorin and arfolitixorin has been analyzed by Taflin et al. in the Modelle 001 Phase 2 clinical study (TS-inhibition in Colorectal Liver Metastases Comparing Arfolitixorin and Calciumfolinate), the primary objective of which is to compare the TS-inhibtion capacity of the combination Arfolitixorin/5-FU in contrast to Calciumfolinate/5-FU in tumour, adjacent liver parenchyma and plasma in patients with liver metastases from colorectal cancer (Study Details | Modelle 001, TS-inhibition in Colorectal Liver Metastases Comparing Arfolitixorin and Calciumfolinate | ClinicalTrials.gov) (Taflin 2023).
(§1) The effectiveness of arfolitixorin vs. leucovorin in Thymidylate Synthase inhibition and in achieving high levels of [6R] 5,10-methylenetetrahydrofolate in metastatic tissue was investigated in the Modelle-001 Phase II clinical trial named "A Single-blinded, Randomized Phase II study investigating the effects of two doses of Arfolitixorin compared to Calcium folinate together with 5-fluorouracil on thymidylate synthase in tumour and adjacent hepatic tissue for patients with liver metastases from colorectal cancer". Link: Study Details I Modelle 001, TS-inhibition in Colorectal Liver Metastases Comparing Arfolitixorin and Calciumfolinate I Clinical-Trials.gov.
(§2) Aim: The Modelle-001 trial was designed to explore how a single intravenous bolus injection of Arfo as compared to LV in the form of calcium folinate, together with 5-FU affects the inhibition of TS and, further, to investigate how different forms and doses of folates affect folate concentration and polyglutamation in metastatic liver tissue.
Patients and Methods: Thirty adult patients with biopsy-verified colorectal cancer and liver metastases indicated for surgical removal were included at two Swedish University Hospitals. Both synchronous and metachronous liver metastases were accepted and most patients had received preoperative chemotherapy. […] Folate levels and TS inhibition were determined by LC-MS/MS.

[1] = Modelle-001 Phase II clinical trial: folate concentration and polyglutamation in metastatic liver tissue (LC-MS/MS); type: in vivo, human; settings: compared to LV60; for ratio of poly/monoglutamated folates: after 5-FU administration
Text: as §1, §2
Patients and Methods: Thirty adult patients with biopsy-verified colorectal cancer and liver metastases indicated for surgical removal were included at two Swedish University Hospitals. Both synchronous and metachronous liver metastases were accepted and most patients had received preoperative chemotherapy. The first six patients received a reduced 5-FU dosage (250 mg/m2), and an independent safety committee gave permission to escalate to full dosage. Twenty-four patients were randomized to receive 500 mg/m2 5-FU either in combination with 60 mg/m2 LV (LV60, n = 12), 30 mg/m2 Arfo (A30, n = 6) or 120 mg/m2 Arfo (A120, n = 6) as a bolus regimen (a slow i.v. injection for three minutes). Metastatic tissue was collected 60 minutes after folate administration, then 5-FU was given. After a 60-minute break, metastatic tissue was again collected. Folate levels and TS inhibition were determined by LC-MS/MS.

solid tumors = assay: Phase I/IIa study ISO-CC-005: tumour response to arfolitixorin doublet regimens (ARFIRI/ARFOX); type: in vivo, human; settings: 120 mg/m^2 arfolitixorin and 5-FU with either irinotecan or oxaliplatin (ARFIRI/ARFOX)
Method: Arfolitixorin has been in development for a number of years and has been studied in several clinical studies.
The completion of the study was announced in January 2020. In total, 105 patients were included in the study. […] These patients had been treated with the "doublet" regimens comprising 120 mg/m^2 arfolitixorin and 5-fluorouracil (5-FU) with either irinotecan or oxaliplatin (ARFIRI/ARFOX). Out of the 31 patients, 17 were treated with an ARFOX regimen.

[2] = [6R]-MTHF levels after arfolitixorin versus comparable leucovorin treatment; type: in vivo; settings: fold higher than leucovorin
Text: Leucovorin and I-leucovorin, both currently approved for treatment of gastrointestinal and other cancers, need to be metabolically activated to [6R]-MTHF to potentiate the effect of 5-FU. This dependency on cellular activation provides a hurdle for reaching sufficient levels of the active [6R]-MTHF. […] Secondly, the enzymatic activation is genetically regulated^16,18, and is therefore associated with variability between individuals and conditions. Arfolitoxirin is believed to be efficacious in a larger proportion of patients with less inter- and intra-individual variability. These differences may potentially turn out to be of significant importance for increased clinical efficacy in 5-FU based cancer treatment.

[3] = cited from earlier work
[4] = cited from earlier work; remark: listed apart in the source
[5] = tested on: advanced metastatic colorectal adenocarcinoma; settings: FOLFIRINOX (± cetuximab) supplemented with pyridoxine in high doses, cited from earlier work

T1 sequence (P04818 2-313 limits assumed): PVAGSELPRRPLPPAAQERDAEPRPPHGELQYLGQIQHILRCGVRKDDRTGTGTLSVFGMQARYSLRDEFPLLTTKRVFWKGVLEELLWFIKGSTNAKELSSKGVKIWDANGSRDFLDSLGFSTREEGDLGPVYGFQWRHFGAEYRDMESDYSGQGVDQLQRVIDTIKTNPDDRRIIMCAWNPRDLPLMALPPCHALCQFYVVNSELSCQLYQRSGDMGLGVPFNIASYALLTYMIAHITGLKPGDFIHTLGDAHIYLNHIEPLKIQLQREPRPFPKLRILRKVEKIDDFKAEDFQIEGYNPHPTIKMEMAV

SMILES: Nc1nc2c(c(=O)[nH]1)N1CN(c3ccc(C(=O)N[C@@H](CCC(=O)O)C(=O)O)cc3)C[C@H]1CN2 [arfolitixorin, [6R]-5,10-methylenetetrahydrofolate]
inhibition at 30 mg/m2 (thymidylate synthase; 30 mg/m2 arfolitixorin (A30)): 54.2%
inhibition at 120 mg/m2 (thymidylate synthase; 120 mg/m2 arfolitixorin (A120)): 83.8%
ratio of poly/monoglutamated folates ([1]; 30 mg/m2 (A30), p = 0.045): higher
5,10-methylenetetrahydrofolate (CH2THF) concentrations in metastases ([1]; 30 mg/m2 (A30), after 5-FU treatment, p = 0.031): higher
5,10-methylenetetrahydrofolate (CH2THF) concentrations in metastases ([1]; 30 mg/m2 (A30), before 5-FU treatment, p = 0.037): higher
ratio of poly/monoglutamated folates ([1]; 120 mg/m2 (A120), p = 0.0049): higher
5,10-methylenetetrahydrofolate (CH2THF) concentrations in metastases ([1]; 120 mg/m2 (A120), after 5-FU treatment, p = 0.0023): higher
5,10-methylenetetrahydrofolate (CH2THF) concentrations in metastases ([1]; 120 mg/m2 (A120), before 5-FU treatment, p = 0.0003): higher
best overall response rate (ORR) (solid tumors): 55%
[6R]-MTHF levels relative to comparable treatment with leucovorin [2]: 3-4 times

inhibition at 60 mg/m2 (thymidylate synthase; 60 mg/m2 Leucovorin (LV60)): 25.4%
SMILES: Nc1nc2c(c(=O)[nH]1)N(C=O)C(CNc1ccc(C(=O)N[C@@H](CCC(=O)O)C(=O)O)cc1)CN2 (stereo partly shown) [Leucovorin, 5-formyl tetrahydrofolic acid, reference compound]

SMILES: Cc1ncc(CO)c(CO)c1O.Cl [Pyridoxine hydrochloride]
stability in air ([3]; air): stable in air
stability to sunlight ([3]; sunlight): slowly affected by sunlight
volume of water in which one gram dissolves [4]: 5 mL

SMILES: Cc1ncc(CO)c(CO)c1O [pyridoxine]
toxicity associated with the pyridoxine-modified protocols [5]: of the same magnitude as expected for the standard protocols
Antitumor activity ([5]; five patients, no controls): high for several patients
